Laboratory results taken from ChEMBL document CHEMBL4196070, “Development of Piperazinediones as dual inhibitor for treatment of Alzheimer's disease” (Eur J Med Chem, 2018).
Calls of active or inactive are those of the source. The rule behind the calls is not given here.

What was measured:
[1] = Antioxidant activity assessed as DPPH radical scavenging activity at 20 uM after 25 mins; type: functional
[2] = Antioxidant activity assessed as DPPH radical scavenging activity at 10 uM after 25 mins; type: functional
[3] = Selectivity index, ratio of IC50 for electric eel AChE to IC50 for equine serum BuChE
[4] = tested on: Mus musculus; experiment: Reversal of scopolamine-induced memory deficit in Swiss albino mouse assessed as increase in transfer latency time of retention trial at 10 mg/kg, ip administered once daily for 7 days followed by scopolamine challenge and subsequent training session for 5 mins by passive avoidance test; type: functional, organism-based
[5] = tested on: Mus musculus; experiment: Restoration of brain catalase level in scopolamine-induced Swiss albino mouse amnesia model at 10 mg/kg, ip administered once daily for 7 days followed by scopolamine challenge by spectrophotometric analysis; type: functional, organism-based
[6] = tested on: Mus musculus; experiment: Antialzheimer activity in Swiss albino mouse assessed as reversal of scopolamine-induced AChE level in brain at 10 mg/kg, ip administered once daily for 7 days followed by scopalamine challenge using acetylthiocholine iodide as substrate by Ellman's method; type: functional, organism-based
[7] = tested on: Mus musculus; experiment: Reversal of scopolamine-induced anxiety in Swiss albino mouse assessed as increase in number of novel arm entries at 5 to 10 mg/kg, ip administered once daily for 7 days prior to 4 hrs of training followed by scopolamine challenge and measured after 5 mins by Y-maze test; type: functional, organism-based
[8] = tested on: Mus musculus; experiment: Anxiolytic activity in Swiss albino mouse assessed as increase in time spent in novel arm at 20 mg/kg, ip administered once daily for 7 days prior to 4 hrs of training followed by scopolamine challenge and measured after 5 mins by Y-maze test; type: functional, organism-based
[9] = tested on: Mus musculus; experiment: Restoration of brain mitochondrial membrane potential in scopolamine-induced Swiss albino mouse amnesia model at 5 mg/kg, ip administered once daily for 7 days followed by scopolamine challenge by tetramethylrhodamine dye-based fluorescence assay; type: functional, organism-based
[10] = tested on: Mus musculus; experiment: Reversal of scopolamine-induced neophobia in Swiss albino mouse assessed as increase in number of novel arm entries at 5 to 10 mg/kg, ip administered once daily for 7 days prior to 4 hrs of training followed by scopolamine challenge and measured after 5 mins by Y-maze test; type: functional, organism-based
[11] = tested on: Mus musculus; experiment: Reversal of scopolamine-induced amnesic effect in Swiss albino mouse assessed as reversal of lowered spontaneous alteration at 10 mg/kg, ip administered once daily for 7 days prior to 4 hrs of training followed by scopolamine challenge and measured after 5 mins by Y-maze test; type: functional, organism-based
[12] = tested on: Mus musculus; experiment: Neuroprotective activity in scopolamine-induced amnesia Swiss albino mouse model assessed as decrease in neurodegenerative lesions in brain at 10 mg/kg, ip administered once daily for 7 days followed by scopolamine challenge by histopathological method; type: functional, organism-based
[13] = molecular target: Acetylcholinesterase (Electrophorus electricus) (UniProt O42275); experiment: Ratio of Vmax to Km for substrate for inhibition of electric eel AChE at 20 nM preincubated for 30 mins followed acetylthiocholine iodide substrate addition by Lineweaver-Burk plot analysis
[14] = tested on: Mus musculus; experiment: Reversal of scopolamine-induced neophobia in Swiss albino mouse assessed as increase in number of novel arm entries at 10 mg/kg, ip administered once daily for 7 days prior to 4 hrs of training followed by scopolamine challenge and measured after 5 mins by Y-maze test; type: functional, organism-based
[15] = Metal chelating activity assessed as compound-Cu2+ complex formation at 600 uM after 8 hrs by UV spectroscopic analysis
[16] = molecular target: Acetylcholinesterase (Electrophorus electricus) (UniProt O42275); experiment: Ratio of Vmax to Km for substrate for inhibition of electric eel AChE at 40 nM preincubated for 30 mins followed acetylthiocholine iodide substrate addition by Lineweaver-Burk plot analysis
[17] = tested on: Mus musculus; experiment: Reversal of scopolamine-induced neophobia in Swiss albino mouse assessed as increase in number of novel arm entries at 5 mg/kg, ip administered once daily for 7 days prior to 4 hrs of training followed by scopolamine challenge and measured after 5 mins by Y-maze test; type: functional, organism-based
[18] = tested on: Mus musculus; experiment: Reversal of scopolamine-induced anxiety in Swiss albino mouse assessed as increase in number of novel arm entries at 10 mg/kg, ip administered once daily for 7 days prior to 4 hrs of training followed by scopolamine challenge and measured after 5 mins by Y-maze test; type: functional, organism-based
[19] = molecular target: Acetylcholinesterase (Electrophorus electricus) (UniProt O42275); experiment: Ratio of Vmax to Km for substrate for inhibition of electric eel AChE at 10 nM preincubated for 30 mins followed acetylthiocholine iodide substrate addition by Lineweaver-Burk plot analysis
[20] = tested on: Mus musculus; experiment: Reversal of scopolamine-induced amnesic effect in Swiss albino mouse assessed as reversal of lowered spontaneous alteration at 5 mg/kg, ip administered once daily for 7 days prior to 4 hrs of training followed by scopolamine challenge and measured after 5 mins by Y-maze test; type: functional, organism-based
[21] = tested on: Mus musculus; experiment: Reversal of scopolamine-induced memory deficit in ip dosed Swiss albino mouse assessed as increase in transfer latency time of retention trial administered once daily for 7 days followed by scopolamine challenge and subsequent training session for 5 mins by passive avoidance test; type: functional, organism-based
[22] = tested on: Mus musculus; experiment: Antialzheimer activity in Swiss albino mouse assessed as reversal of scopolamine-induced AChE level in brain at 5 mg/kg, ip administered once daily for 7 days followed by scopalamine challenge using acetylthiocholine iodide as substrate by Ellman's method; type: functional, organism-based
[23] = tested on: Mus musculus; experiment: Reversal of scopolamine-induced anxiety in Swiss albino mouse assessed as increase in number of novel arm entries at 5 mg/kg, ip administered once daily for 7 days prior to 4 hrs of training followed by scopolamine challenge and measured after 5 mins by Y-maze test; type: functional, organism-based

Chain of Acetylcholinesterase (Electrophorus electricus) (O42275 24-633 limits assumed): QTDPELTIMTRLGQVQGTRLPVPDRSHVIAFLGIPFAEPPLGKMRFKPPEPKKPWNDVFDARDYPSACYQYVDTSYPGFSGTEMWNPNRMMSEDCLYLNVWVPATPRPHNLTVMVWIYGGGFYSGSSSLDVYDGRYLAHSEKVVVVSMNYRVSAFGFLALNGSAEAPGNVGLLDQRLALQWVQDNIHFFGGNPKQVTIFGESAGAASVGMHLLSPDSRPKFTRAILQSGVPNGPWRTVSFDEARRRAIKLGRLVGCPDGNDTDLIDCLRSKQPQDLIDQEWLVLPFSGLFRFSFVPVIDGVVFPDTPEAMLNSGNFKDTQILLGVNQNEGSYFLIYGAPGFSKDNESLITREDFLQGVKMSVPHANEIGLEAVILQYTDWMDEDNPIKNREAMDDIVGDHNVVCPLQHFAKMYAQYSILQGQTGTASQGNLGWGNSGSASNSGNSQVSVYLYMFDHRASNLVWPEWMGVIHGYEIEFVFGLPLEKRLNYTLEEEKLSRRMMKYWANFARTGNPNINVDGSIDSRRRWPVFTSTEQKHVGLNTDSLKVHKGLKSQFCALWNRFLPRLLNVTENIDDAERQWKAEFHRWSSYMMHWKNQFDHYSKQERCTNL

SMILES	Activity [1]	Activity [2]	Ratio IC50 [3]	further results
CCCCS(=O)(=O)N1CC(=O)N(S(=O)(=O)CCCC)CC1=O	56.7%	65.7%	–	–
O=C1C(c2ccccc2)N(S(=O)(=O)c2ccc([N+](=O)[O-])cc2)C(=O)C(c2ccccc2)N1S(=O)(=O)c1ccc([N+](=O)[O-])cc1 (stereo unspecified)	54.3%	42.4%	0.3	–
O=C1C(Cc2ccccc2)N(S(=O)(=O)c2ccc(Br)cc2)C(=O)C(Cc2ccccc2)N1S(=O)(=O)c1ccc(Br)cc1 (stereo unspecified)	64.8%	47.6%	0.3	–
O=C1CN(S(=O)(=O)c2ccccc2)C(=O)CN1S(=O)(=O)c1ccccc1	52.4%	39.5%	–	–
O=C1C(Cc2ccccc2)N(S(=O)(=O)c2ccc([N+](=O)[O-])cc2)C(=O)C(Cc2ccccc2)N1S(=O)(=O)c1ccc([N+](=O)[O-])cc1 (stereo unspecified)	54.8%	42.9%	0.4	–
COc1cc2c(cc1OC)C(=O)C(CC1CCN(Cc3ccccc3)CC1)C2 (stereo unspecified)	74.6%	60.1%	–	Activity [4]: Active
O=C1CN(S(=O)(=O)c2ccc(Br)cc2)C(=O)CN1S(=O)(=O)c1ccc(Br)cc1	60.4%	47.1%	0.4	–
O=C1CN(S(=O)(=O)c2ccc(F)cc2)C(=O)CN1S(=O)(=O)c1ccc(F)cc1	50.5%	37.1%	0.4	–
Cc1ccc(S(=O)(=O)N2C(=O)C(c3ccccc3)N(S(=O)(=O)c3ccc(C)cc3)C(=O)C2c2ccccc2)cc1 (stereo unspecified)	56.2%	38.1%	< 0.4	–
O=C1C(Cc2ccccc2)N(S(=O)(=O)c2ccc(Cl)cc2)C(=O)C(Cc2ccccc2)N1S(=O)(=O)c1ccc(Cl)cc1 (stereo unspecified)	60%	48.1%	0.2	Activity [5]: Active; Activity [6]: Active; Activity [7]: Active; Activity [8]: Active; Activity [9]: Active; Activity [10]: Active; Activity [11]: Active; Activity [12]: Active
O=C1C(c2ccccc2)N(S(=O)(=O)c2cccc(Br)c2)C(=O)C(c2ccccc2)N1S(=O)(=O)c1cccc(Br)c1 (stereo unspecified)	63.3%	46.2%	0.4	–
O=C1O[C@H]([C@@H](O)CO)C(O)=C1O	48.8%	37.1%	–	–
O=C1C(Cc2ccccc2)N(S(=O)(=O)c2cccc(O)c2)C(=O)C(Cc2ccccc2)N1S(=O)(=O)c1cccc(O)c1 (stereo unspecified)	66.2%	57.1%	0.3	–
CCCS(=O)(=O)N1CC(=O)N(S(=O)(=O)CCC)CC1=O	59.2%	31.4%	–	–
O=C1C(Cc2ccccc2)N(S(=O)(=O)c2cccc(Br)c2)C(=O)C(Cc2ccccc2)N1S(=O)(=O)c1cccc(Br)c1 (stereo unspecified)	64.3%	46.7%	0.4	–
Cc1cccc(S(=O)(=O)N2C(=O)C(c3ccccc3)N(S(=O)(=O)c3cccc(C)c3)C(=O)C2c2ccccc2)c1 (stereo unspecified)	55.2%	38.6%	< 0.4	–
Nc1ccc(S(=O)(=O)N2C(=O)C(c3ccccc3)N(S(=O)(=O)c3ccc(N)cc3)C(=O)C2c2ccccc2)cc1 (stereo unspecified)	66.7%	56.2%	< 0.5	–
Cc1ccc(S(=O)(=O)N2CC(=O)N(S(=O)(=O)c3ccc(C)cc3)CC2=O)cc1	46.7%	34.8%	< 0.6	–
O=C1C(c2ccccc2)N(S(=O)(=O)c2ccc(O)cc2)C(=O)C(c2ccccc2)N1S(=O)(=O)c1ccc(O)cc1 (stereo unspecified)	65.2%	52.9%	< 0.4	–
COc1ccc(S(=O)(=O)N2CC(=O)N(S(=O)(=O)c3ccc(OC)cc3)CC2=O)cc1	57.6%	48.6%	< 0.5	–
Nc1ccc(S(=O)(=O)N2CC(=O)N(S(=O)(=O)c3ccc(N)cc3)CC2=O)cc1	62.9%	55.7%	< 0.4	–
O=C1C(Cc2ccccc2)N(S(=O)(=O)c2ccc(O)cc2)C(=O)C(Cc2ccccc2)N1S(=O)(=O)c1ccc(O)cc1 (stereo unspecified)	68.6%	58.1%	0.3	–
O=C1CN(S(=O)(=O)c2ccc(Cl)cc2)C(=O)CN1S(=O)(=O)c1ccc(Cl)cc1	55.2%	36.2%	0.3	–
O=C1C(c2ccccc2)N(S(=O)(=O)c2ccc(Br)cc2)C(=O)C(c2ccccc2)N1S(=O)(=O)c1ccc(Br)cc1 (stereo unspecified)	63.8%	45.7%	0.2	–
O=C1C(c2ccccc2)N(S(=O)(=O)c2ccc(Cl)cc2)C(=O)C(c2ccccc2)N1S(=O)(=O)c1ccc(Cl)cc1 (stereo unspecified)	60.3%	52.9%	0.2	Vmax/Km [13]: 0.0696 U/min/nM; Activity [14]: inactive; Activity [15]: Active; Activity [8]: Active; Vmax/Km [16]: 0.00052 U/min/nM; Activity [9]: Active; Activity [17]: Active; Activity [18]: inactive; Vmax/Km [19]: 0.104 U/min/nM; Activity [20]: Active; Activity [21]: Dose-dependent effect; Activity [22]: Active; Activity [23]: Active; Activity [12]: Active
O=C1CN(S(=O)(=O)c2cccc(Cl)c2)C(=O)CN1S(=O)(=O)c1cccc(Cl)c1	55.2%	35.7%	0.3	–
